Experimental findings from PubChem BioAssay AID328 (DTP/NCI, 2004) are described below.

In this experiment the test system is BDF1 mice, P388 leukemia ip, median survival T/C. The experiment can be described thus: NCI In Vivo Anticancer Drug Screen. Data for tumor model P388 Leukemia (intraperitoneal) in B6D2F1 (BDF1) mice. Conditions: endpoint: median survival time, higher = longer survival. The procedure, abridged: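 Steps: implant the tumour, treat one group with compound and another with vehicle, record survival, then divide treated by control.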

Where [1] appears, read: dose: 25.0 mg/kg/injection, schedule: Q01DX009 (ip), vehicle: Klucel (hydroxypropylcellulose) (HPC).
Where [2] appears, read: dose: 100.0 mg/kg/injection, schedule: Q04DX003 (ip), vehicle: saline with Tween-80.
[3] abbreviates: dose: 200.0 mg/kg/injection, schedule: Q04DX003 (ip), vehicle: saline with Tween-80.
[4] abbreviates: dose: 400.0 mg/kg/injection, schedule: Q04DX003 (ip), vehicle: saline with Tween-80.
[5] abbreviates: dose: 50.0 mg/kg/injection, schedule: Q01DX009 (ip), vehicle: saline with Tween-80.
The mark [6] stands for this setting: dose: 25.0 mg/kg/injection, schedule: Q01DX009 (ip), vehicle: saline with Tween-80.
Setting [7] is: dose: 100.0 mg/kg/injection, schedule: Q01DX009 (ip), vehicle: saline with Tween-80.
The mark [8] stands for this setting: dose: 200.0 mg/kg/injection, schedule: Q01DX009 (ip), vehicle: saline with Tween-80.

The structures appear in SMILES notation. Where “and” joins values, the source holds several entries; their conditions need not be identical. Identical values can stand only once. Inconclusive results and toxic doses are left out.

Consider `Clc1ccc2nc(CI)c(CI)nc2c1`, for which the T/C is 100 % of control (dose: 3.12 mg/kg/injection, schedule: Q01DX009 (ip), vehicle: Klucel (hydroxypropylcellulose) (HPC)); 100 % of control and 122 % of control (dose: 6.25 mg/kg/injection, schedule: Q01DX009 (ip), vehicle: Klucel (hydroxypropylcellulose) (HPC)); 108 % of control (dose: 6.25 mg/kg/injection, schedule: Q04DX003 (ip), vehicle: saline); 88 % of control and 100 % of control (dose: 12.5 mg/kg/injection, schedule: Q01DX009 (ip), vehicle: Klucel (hydroxypropylcellulose) (HPC)); 108 % of control (dose: 12.5 mg/kg/injection, schedule: Q04DX003 (ip), vehicle: saline); 122 % of control (dose: 22.0 mg/kg/injection, schedule: Q01DX009 (ip), vehicle: saline with Tween-80). The T/C was 95 % of control under setting [1]; 104 % of control (dose: 25.0 mg/kg/injection, schedule: Q04DX003 (ip), vehicle: saline); 113 % of control (dose: 33.0 mg/kg/injection, schedule: Q01DX009 (ip), vehicle: saline with Tween-80).

Consider `COC1=C(N2CC2)C(=O)C(OC)=C(N2CC2)C1=O`, for which the T/C is 217 % of control (dose: 0.5 mg/kg/injection, schedule: Q01DX009 (ip), vehicle: Klucel (hydroxypropylcellulose) (HPC)); 162 % of control (dose: 0.5 mg/kg/injection, schedule: Q01DX009 (ip), vehicle: saline); 170 % of control (dose: 0.8 mg/kg/injection, schedule: Q04DX003 (ip), vehicle: saline with Tween-80); 234 % of control (dose: 1.0 mg/kg/injection, schedule: Q01DX009 (ip), vehicle: Klucel (hydroxypropylcellulose) (HPC)); 179 % of control (dose: 1.0 mg/kg/injection, schedule: Q01DX009 (ip), vehicle: saline with Tween-80); 201 % of control (dose: 1.0 mg/kg/injection, schedule: Q01DX009 (ip), vehicle: saline). The T/C (dose: 1.8 mg/kg/injection, schedule: Q04DX003 (ip), vehicle: saline with Tween-80) is 154 % of control; the T/C (dose: 2.0 mg/kg/injection, schedule: Q01DX009 (ip), vehicle: Klucel (hydroxypropylcellulose) (HPC)) was 285 % of control; the T/C (dose: 2.0 mg/kg/injection, schedule: Q01DX009 (ip), vehicle: saline with Tween-80) is 91 % of control; the T/C (dose: 2.0 mg/kg/injection, schedule: Q01DX009 (ip), vehicle: saline) was 252 % of control; the T/C (dose: 2.6 mg/kg/injection, schedule: Q04DX003 (ip), vehicle: saline with Tween-80) is 173 % of control; the T/C (dose: 4.0 mg/kg/injection, schedule: Q01DX009 (ip), vehicle: Klucel (hydroxypropylcellulose) (HPC)) was 326 % of control. Besides, the T/C is 92 % of control (dose: 4.0 mg/kg/injection, schedule: Q01DX009 (ip), vehicle: saline); 165 % of control (dose: 4.0 mg/kg/injection, schedule: Q04DX003 (ip), vehicle: saline with Tween-80); 200 % of control (dose: 6.0 mg/kg/injection, schedule: Q04DX003 (ip), vehicle: saline with Tween-80).

Consider `Cc1ccc(NC(=O)Nc2ccccc2C(F)(F)F)cc1NC(=O)Nc1ccccc1C(F)(F)F`, for which the T/C under setting [2] is 100 % of control, the T/C under setting [3] is 100 % of control and the T/C under setting [4] is 104 % of control.

`OC(CC1CCCCN1)c1cc(C(F)(F)F)nc2c(C(F)(F)F)cccc12` (centres undefined): the T/C under setting [5] was 111 % of control.

For `COc1ccc2nonc2c1`, the T/C reads like this: under setting [6], 102 % of control; under setting [5], 93 % of control; under setting [7], 90 % of control; under setting [8], 106 % of control.

As for `CCCCCCCCCCCCCC(=O)CC`, the T/C runs as follows: (dose: 85.0 mg/kg/injection, schedule: Q04DX003 (ip), vehicle: saline with Tween-80) 91 % of control; (dose: 135.0 mg/kg/injection, schedule: Q04DX003 (ip), vehicle: saline with Tween-80) 91 % of control; under setting [3], 87 % of control.

Turning to `O=Cc1ccc(N(c2ccccc2)c2ccccc2)cc1`, the T/C is, setting by setting: (dose: 100.0 mg/kg/injection, schedule: Q04DX003 (ip), vehicle: Klucel (hydroxypropylcellulose) (HPC)) 111 % of control; (dose: 200.0 mg/kg/injection, schedule: Q04DX003 (ip), vehicle: Klucel (hydroxypropylcellulose) (HPC)) 111 % of control; (dose: 400.0 mg/kg/injection, schedule: Q04DX003 (ip), vehicle: Klucel (hydroxypropylcellulose) (HPC)) 94 % of control.

Regarding `CC(C)NCC(O)COc1ccc(OCc2ccccc2)c(OCc2ccccc2)c1` (centres undefined), the T/C reads like this: under setting [6], 106 % of control; under setting [5], 94 % of control.

As to `C=CCN1c2ccccc2Sc2cnccc21`, the T/C reads like this: under setting [5], 109 % of control; under setting [7], 100 % of control and 104 % of control; under setting [8], 100 % of control.

For `CC(=O)CC(=O)Nc1ccc([N+](=O)[O-])cc1`, the T/C (dose: 50.0 mg/kg/injection, schedule: Q04DX003 (ip), vehicle: saline with Tween-80) is 109 % of control; the T/C under setting [2] is 109 % of control; the T/C under setting [3] was 95 % of control; the T/C under setting [4] is 100 % of control.

Regarding `c1ccc(-c2nc3ccccc3nc2-c2ccc(Sc3ccc(-c4nc5ccccc5nc4-c4ccccc4)cc3)cc2)cc1`, the T/C runs as follows: under setting [7], 101 % of control; under setting [8], 93 % of control.

For the compound `CCCCCCCCCCCC(=O)CCCC`, the T/C runs as follows: (dose: 100.0 mg/kg/injection, schedule: Q01DX009 (ip), vehicle: other) 110 % of control; (dose: 200.0 mg/kg/injection, schedule: Q01DX009 (ip), vehicle: other) 90 % of control.

`COC(C(=O)C(O)C(C)O)C1CC2C=C3C=C(OC4CC(OC5CC(O)C(OC)C(C)O5)C(OC(C)=O)C(C)O4)C(C)C(=O)C3=C(O)C2=C(O)C1OC1CC(OC2CC(OC3CC(C)(O)C(OC(=O)C(C)C)C(C)O3)C(O)C(C)O2)C(O)C(C)O1` (centres undefined): the T/C (dose: 0.12 mg/kg/injection, schedule: Q01DX001 (ip), vehicle: other) was 150 % of control; the T/C (dose: 0.25 mg/kg/injection, schedule: Q01DX001 (ip), vehicle: other) is 204 % of control; the T/C (dose: 12.5 micrograms/kg/injection, schedule: Q01DX009 (ip), vehicle: saline) is 111 % of control; the T/C (dose: 25.0 micrograms/kg/injection, schedule: Q01DX009 (ip), vehicle: saline) is 111 % of control; the T/C (dose: 31.2 micrograms/kg/injection, schedule: Q01DX001 (ip), vehicle: saline) was 165 % of control; the T/C (dose: 31.2 micrograms/kg/injection, schedule: Q04DX003 (ip), vehicle: saline) was 190 % of control. Further, the T/C was 190 % of control (dose: 31.2 micrograms/kg/injection, schedule: Q08DX002 (ip), vehicle: saline); 111 % of control (dose: 50.0 micrograms/kg/injection, schedule: Q01DX009 (ip), vehicle: saline); 150 % of control and 195 % of control (dose: 62.5 micrograms/kg/injection, schedule: Q01DX001 (ip), vehicle: saline); 210 % of control (dose: 62.5 micrograms/kg/injection, schedule: Q08DX002 (ip), vehicle: saline); 111 % of control (dose: 100.0 micrograms/kg/injection, schedule: Q01DX009 (ip), vehicle: saline); 230 % of control (dose: 125.0 micrograms/kg/injection, schedule: Q01DX001 (ip), vehicle: saline). Besides, the T/C was 185 % of control (dose: 125.0 micrograms/kg/injection, schedule: Q08DX002 (ip), vehicle: saline); 240 % of control and 150 % of control (dose: 250.0 micrograms/kg/injection, schedule: Q01DX001 (ip), vehicle: saline); 108 % of control (dose: 500.0 micrograms/kg/injection, schedule: Q01DX001 (ip), vehicle: saline); 100 % of control (dose: 500.0 micrograms/kg/injection, schedule: Q08DX002 (ip), vehicle: saline).

As for `CC[C@H](C)c1occ2c(O)c(C(=O)O)c(=O)cc-2c1C`, the T/C (dose: 6.0 mg/kg/injection, schedule: Q01DX009 (ip), vehicle: Klucel (hydroxypropylcellulose) (HPC)) is 100 % of control; the T/C (dose: 12.0 mg/kg/injection, schedule: Q01DX009 (ip), vehicle: Klucel (hydroxypropylcellulose) (HPC)) was 118 % of control; the T/C under setting [1] is 118 % of control.

As for `CCOCCOCCOCCCNCCCN1CC1`, the T/C (dose: 50.0 mg/kg/injection, schedule: Q01DX009 (ip), vehicle: saline) is 187 % of control; the T/C (dose: 100.0 mg/kg/injection, schedule: Q01DX009 (ip), vehicle: saline) is 95 % of control; the T/C (dose: 100.0 mg/kg/injection, schedule: Q04DX003 (ip), vehicle: saline) was 177 % of control; the T/C (dose: 200.0 mg/kg/injection, schedule: Q04DX003 (ip), vehicle: saline) was 190 % of control.
